Results from patent US12378247B2, “Mesylate salt of para-topolin, compositions containing said salt and use thereof” (USTAV EXPERIMENTALNI BOTANIKY AV CR, V. V. I., priority 2020, dated 2025).
Counter-ions that a name gives are not always drawn.

Tests used:
[1] = Calcein AM cytotoxicity assay, CEM; type: cell-based; settings: human, CEM cells (T-lymphoblastic leukaemia), 3-day Calcein-AM assay, read-out: Cytotoxic activity IC50
Excerpt: (§1) Because toxic compounds negatively influence metabolic processes of cells, many standard cytotoxicity assays are based on measurement of metabolisation rate of various artificial substrates. Resulting product is then quantified, for example, by means of spectrometry. The assays can be easily modified for use in 96-well plates. For evaluation of cytotoxicity of the […] of this invention, a microtiter assay based on quantification of metabolisation of Calcein AM was used. The assay is widely used in drug screening programs and in chemosensitivity testing. In live cells, Calcein AM is enzymatically hydrolysed and accumulation of the resulting calcein is manifested by green fluorescence. […]
(§2) Approximately 10,000 cells in 80 μL of medium were seeded into 96-well microtitre plates. […] The fluorescence of free calcein was then quantified using a Fluoroscan Ascent fluorometer (Microsystems), and the percentage of surviving cells in each well was calculated by dividing the OD obtained from each cell with exposed cells by the mean OD obtained from control wells×100%. […]

[2] = Stability study by XRPD diffraction; type: physicochemical; settings: 25° C., on light, after 30 days
Experimental: X-ray powder diffraction studies were performed on a Bruker D8 Advance ECO diffractometer with Cu K-alpha radiation and SSD160 detector. Approximately 5 mg of sample was gently compressed on the XRPD sample holder. The sample was then loaded into a Bruker D8-Discover diffractometer in transmission mode and analyzed using the experimental conditions shown below: XRPD measurement conditions
Sample stability was tested at 25° C. for […] on light. […] XRPD of samples were taken after 30 days to investigate any solid form change (any difractogram/pattern change).

[3] = Calcein AM cytotoxicity assay, HELA; type: cell-based; settings: human, HeLa cells (cervical carcinoma), 3-day Calcein-AM assay, read-out: Cytotoxic activity IC50
Excerpt: as §1, §2

[4] = Calcein AM cytotoxicity assay, MCF7; type: cell-based; settings: human, MCF-7 cells (breast adenocarcinoma); MCF7, 3-day Calcein-AM assay; read-out: Cytotoxic activity IC50
Excerpt: as §1, §2

[5] = system: CEM (T-lymphoblastic leukaemia); assay: Calcein AM cytotoxicity assay, CEM; type: cell-based; settings: 3-day Calcein-AM assay, read-out: Cytotoxic activity IC50
Excerpt: as §1, §2

[6] = system: HeLa (cervical carcinoma); assay: Calcein AM cytotoxicity assay, HELA; type: cell-based; settings: 3-day Calcein-AM assay, read-out: Cytotoxic activity IC50
Excerpt: as §1, §2

[7] = water; reported value; cited from earlier work
[8] = system: MCF-7 (breast adenocarcinoma); assay: Calcein AM cytotoxicity assay, MCF7; type: cell-based; settings: MCF7, 3-day Calcein-AM assay; read-out: Cytotoxic activity IC50
Excerpt: as §1, §2

Q: For `Oc1ccc(CNc2ncnc3nc[nH]c23)cc1` [para-topolin mesylate, 6-(4-hydroxybenzylamino) purine (para-topolin) mesylate (methylsulphonate)], which IC50 at 72 h [1] is on record?
A: The IC50 at 72 h was over 167 µM.

Q: What about the “Solid-state stability (structure, color, XRPD pattern change)” value ([2]; listed as crystalline para-topolin mesylate salt) of the same compound?
A: Its value is “No structure nor color change”.

Q: What about the “Solid-state stability (structure, color, XRPD pattern change)” value ([2]; listed as para-topolin mesylate crystalline salt) of the same compound?
A: The value was “no structural pattern changes detected”.

Q: And the IC50 at 72 h [3]?
A: Its IC50 at 72 h is over 167 µM.

Q: And the IC50 at 72 h [4]?
A: Its IC50 at 72 h is over 167 µM.

Q: Which results are given for `Oc1ccc(CNc2ncnc3nc[nH]c23)cc1` [para-topolin, 6-(4-Hydroxybenzylamino) purine]?
A: IC50 [5]: > 167 µM; IC50 [6]: > 167 µM; aqueous solubility (reported) [7]: < 40 µg/mL; IC50 [8]: > 167 µM
